Measured values taken from US20100267561A1, “HERBICIDAL PYRIDAZINONE DERIVATIVES” (priority 2007, published 2010).

Assays:
Type in all cases: in vivo
[1] = test system: large crabgrass (Digitaria sanguinalis); test: Test B pre-/postemergence plant response; conditions: for Crabgrass, Large plant response rating: 8 g ai/ha
Method in brief: (§1)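 Preemergence and postemergence (plants 2-18 cm, 1- to 4-leaf stage) applications used test chemicals in a non-phytotoxic solvent with surfactant. Plants were held in a greenhouse 13 to 15 days, then rated visually against controls on a 0-100 scale (0 no effect, 100 complete control).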

[2] = test system: johnsongrass (Sorghum halepense); test: Test B pre-/postemergence plant response; conditions: for Johnsongrass plant response rating: 8 g ai/ha
Method in brief: as §1

[3] = test system: cocklebur (Xanthium strumarium); test: Test B pre-/postemergence plant response; conditions: for Cocklebur plant response rating: 8 g ai/ha
Method in brief: as §1

[4] = test system: green foxtail (Setaria viridis); test: Test B pre-/postemergence plant response; conditions: for Foxtail, Green plant response rating: 8 g ai/ha
Method in brief: as §1

[5] = test system: eastern black (E.B.) nightshade (Solanum ptycanthum); test: Test B pre-/postemergence plant response; conditions: Preemergence
Method in brief: as §1

[6] = test system: Italian ryegrass (Lolium multiflorum); test: Test B pre-/postemergence plant response; conditions: for Ryegrass, Italian plant response rating: 8 g ai/ha
Method in brief: as §1

[7] = test system: surinam grass (Brachiaria decumbens); test: Test B pre-/postemergence plant response; conditions: for Surinam Grass plant response rating: 8 g ai/ha
Method in brief: as §1

[8] = test system: morningglory (Ipomoea coccinea); test: Test B pre-/postemergence plant response; conditions: for Morningglory plant response rating: 8 g ai/ha
Method in brief: as §1

[9] = test system: wheat (Triticum aestivum); test: Test B pre-/postemergence plant response; conditions: for Wheat plant response rating: 8 g ai/ha
Method in brief: as §1

[10] = test system: goosegrass (Eleusine indica); test: Test B pre-/postemergence plant response; conditions: for Goosegrass plant response rating: 8 g ai/ha
Method in brief: as §1

[11] = test system: Russian thistle (Salsola iberica); test: Test B pre-/postemergence plant response; conditions: Preemergence
Method in brief: as §1

soybean (Glycine max) = test: Test B pre-/postemergence plant response; conditions: for Soybean plant response rating: 8 g ai/ha
Method in brief: as §1

[12] = test system: bermudagrass (Cynodon dactylon); test: Test B pre-/postemergence plant response; conditions: for Bermudagrass plant response rating: 8 g ai/ha
Method in brief: as §1

[13] = test system: windgrass (Apera spica-venti); test: Test B postemergence plant response; conditions: for Plant response rating, Windgrass: Postemergence
Method in brief: (§2)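 Postemergence spray on 1- to 4-leaf plants (2–18 cm); greenhouse 13–15 d; visual rating vs controls, 0 = no effect, 100 = complete control; dash = not tested.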

[14] = test system: chickweed (Stellaria media); test: Test B postemergence plant response; conditions: for Plant response rating, Chickweed: Postemergence
Method in brief: as §2

[15] = test system: winter barley (Hordeum vulgare); test: Test B postemergence plant response; conditions: for Plant response rating, Barley: Postemergence, scale 0 to 100, 0 no effect, 100 complete control
Method in brief: as §2

[16] = Postemergence, 16 g ai/ha, scale 0 to 100
[17] = Postemergence, 31 g ai/ha, scale 0 to 100, 0 no effect, 100 complete control
[18] = Postemergence, 62 g ai/ha, scale 0 to 100, 0 no effect, 100 complete control
[19] = Preemergence, 16 g ai/ha, scale 0 to 100 (0 no effect, 100 complete control)
[20] = Preemergence, 31 g ai/ha, 0 to 100 scale, 0 no effect, 100 complete control
[21] = Preemergence, 62 g ai/ha, scale 0 to 100
[22] = 16 g ai/ha, scale 0 to 100 (0 no effect, 100 complete control)
[23] = 31 g ai/ha, 0 to 100 scale, 0 no effect, 100 complete control
[24] = 8 g ai/ha, postemergence, 0-100 scale
[25] = 62 g ai/ha, scale 0 to 100, 0 no effect, 100 complete control

## Cc1cc(-c2ccc(Cl)cc2)nn1-c1c(OS(=O)(=O)c2ccccc2)cnn(C)c1=O [Compound 35]
[1]; postemergence, 0-100 scale
  Crabgrass, Large plant response rating: 60
[1]; [16]
  Plant response rating, Crabgrass, Large: 70
[1]; [17]
  Plant response rating, Crabgrass, Large: 80
[1]; [18]
  Plant response rating, Crabgrass, Large: 100
[1]; [19]
  Plant response rating, Crabgrass, Large: 100
[1]; [20]
  Plant response rating, Crabgrass, Large: 100
[1]; [21]
  Plant response rating, Crabgrass, Large: 100
[1]; Preemergence, scale 0 to 100
  Crabgrass, Large plant response rating: 90
[2]; postemergence, 0-100 scale
  Johnsongrass plant response rating: 0
[2]; [16]
  Plant response rating, Johnsongrass: 60
[2]; [17]
  Plant response rating, Johnsongrass: 95
[2]; [18]
  Plant response rating, Johnsongrass: 95
[2]; [19]
  Plant response rating, Johnsongrass: 80
[2]; [20]
  Plant response rating, Johnsongrass: 80
[2]; [21]
  Plant response rating, Johnsongrass: 80
[2]; Preemergence, scale 0 to 100
  Johnsongrass plant response rating: 45
[3]; postemergence, 0-100 scale
  Cocklebur plant response rating: 0
[3]; [16]
  Plant response rating, Cocklebur: 0
[3]; [17]
  Plant response rating, Cocklebur: 0
[3]; [18]
  Plant response rating, Cocklebur: 0
[3]; [19]
  Plant response rating, Cocklebur: 0
[3]; [20]
  Plant response rating, Cocklebur: 0
[3]; [21]
  Plant response rating, Cocklebur: 0
[3]; Preemergence, scale 0 to 100
  Cocklebur plant response rating: 0
[4]; postemergence, 0-100 scale
  Foxtail, Green plant response rating: 0
[4]; [16]
  Plant response rating, Foxtail, Green: 75
[4]; [17]
  Plant response rating, Foxtail, Green: 95
[4]; [18]
  Plant response rating, Foxtail, Green: 95
[4]; [19]
  Plant response rating, Foxtail, Green: 100
[4]; [20]
  Plant response rating, Foxtail, Green: 100
[4]; [21]
  Plant response rating, Foxtail, Green: 100
[4]; Preemergence, scale 0 to 100
  Foxtail, Green plant response rating: 30
[5]; [22]
  Plant response rating, Nightshade, E. B.: 0
[5]; [23]
  Plant response rating, Nightshade, E. B.: 0
[5]; 62 g ai/ha, scale 0 to 100
  Plant response rating, Nightshade, E. B.: 0
[5]; 8 g ai/ha, scale 0 to 100
  Nightshade, E. B. plant response rating: 0
[6]; postemergence, 0-100 scale
  Ryegrass, Italian plant response rating: 40
[6]; [16]
  Plant response rating, Ryegrass, Italian: 40
[6]; [17]
  Plant response rating, Ryegrass, Italian: 90
[6]; [18]
  Plant response rating, Ryegrass, Italian: 98
[6]; [19]
  Plant response rating, Ryegrass, Italian: 100
[6]; [20]
  Plant response rating, Ryegrass, Italian: 100
[6]; [21]
  Plant response rating, Ryegrass, Italian: 100
[6]; Preemergence, scale 0 to 100
  Ryegrass, Italian plant response rating: 100
[7]; postemergence, 0-100 scale
  Surinam Grass plant response rating: 70
[7]; [16]
  Plant response rating, Surinam Grass: 95
[7]; [18]
  Plant response rating, Surinam Grass: 100
[7]; [19]
  Plant response rating, Surinam Grass: 90
[7]; [20]
  Plant response rating, Surinam Grass: 100
[7]; [21]
  Plant response rating, Surinam Grass: 100
[7]; Preemergence, scale 0 to 100
  Surinam Grass plant response rating: 45
[8]; postemergence, 0-100 scale
  Morningglory plant response rating: 0
[8]; [16]
  Plant response rating, Morningglory: 0
[8]; [17]
  Plant response rating, Morningglory: 0
[8]; [18]
  Plant response rating, Morningglory: 0
[8]; [19]
  Plant response rating, Morningglory: 0
[8]; [20]
  Plant response rating, Morningglory: 0
[8]; [21]
  Plant response rating, Morningglory: 10
[8]; Preemergence, scale 0 to 100
  Morningglory plant response rating: 0
[9]; postemergence, 0-100 scale
  Wheat plant response rating: 0
[9]; [16]
  Plant response rating, Wheat: 35
[9]; [18]
  Plant response rating, Wheat: 85
[9]; [19]
  Plant response rating, Wheat: 0
[9]; [20]
  Plant response rating, Wheat: 0
[9]; [21]
  Plant response rating, Wheat: 30
[9]; Preemergence, scale 0 to 100
  Wheat plant response rating: 0
[10]; postemergence, 0-100 scale
  Goosegrass plant response rating: 20
[10]; [16]
  Plant response rating, Goosegrass: 40
[10]; [17]
  Plant response rating, Goosegrass: 70
[10]; [18]
  Plant response rating, Goosegrass: 75
[10]; [19]
  Plant response rating, Goosegrass: 100
[10]; [20]
  Plant response rating, Goosegrass: 100
[10]; [21]
  Plant response rating, Goosegrass: 100
[10]; Preemergence, scale 0 to 100
  Goosegrass plant response rating: 80
[11]; [22]
  Plant response rating, Russian Thistle: 0
[11]; [23]
  Plant response rating, Russian Thistle: 0
[11]; 62 g ai/ha, scale 0 to 100
  Plant response rating, Russian Thistle: 0
[11]; 8 g ai/ha, scale 0 to 100
  Russian Thistle plant response rating: 0
Soybean (Glycine max); postemergence, 0-100 scale
  Soybean plant response rating: 0
Soybean (Glycine max); [16]
  Plant response rating, Soybean: 0
Soybean (Glycine max); [18]
  Plant response rating, Soybean: 0
Soybean (Glycine max); [19]
  Plant response rating, Soybean: 0
Soybean (Glycine max); [20]
  Plant response rating, Soybean: 0
Soybean (Glycine max); [21]
  Plant response rating, Soybean: 0
Soybean (Glycine max); Preemergence, scale 0 to 100
  Soybean plant response rating: 0
[12]; postemergence, 0-100 scale
  Bermudagrass plant response rating: 40
[12]; [16]
  Plant response rating, Bermudagrass: 65
[12]; [17]
  Plant response rating, Bermudagrass: 100
[12]; [18]
  Plant response rating, Bermudagrass: 100
[12]; Preemergence, scale 0 to 100 (0 no effect, 100 complete control)
  Bermudagrass plant response rating: 98
[12]; [19]
  Plant response rating, Bermudagrass: 98
[12]; [20]
  Plant response rating, Bermudagrass: 100
[12]; [21]
  Plant response rating, Bermudagrass: 100
[13]; [24]
  Windgrass plant response rating: 0
[13]; 16 g ai/ha, scale 0 to 100
  Plant response rating, Windgrass: 0
[13]; [25]
  Plant response rating, Windgrass: 40
[14]; [24]
  Chickweed plant response rating: 0
[14]; 16 g ai/ha, scale 0 to 100
  Plant response rating, Chickweed: 0
[14]; 31 g ai/ha, scale 0 to 100, 0 no effect, 100 complete control
  Plant response rating, Chickweed: 0
[14]; [25]
  Plant response rating, Chickweed: 0
[15]; [24]
  Barley plant response rating: 0
[15]; 16 g ai/ha
  Plant response rating, Barley: 0
[15]; 31 g ai/ha
  Plant response rating, Barley: 5
[15]; 62 g ai/ha
  Plant response rating, Barley: 35
